Results on one compound are retold here after patent EP2802310B1, “NEW USE OF ZERUMBONE AND COMPOSITIONS COMPRISING ZERUMBONE” (Sederma, priority 2012, dated 2013).

One test has as its system mature adipocytes. In words: Intracellular triglyceride quantity in mature adipocytes. Type of test: cell-based, human. The conditions noted are these: Zerumbone 6ppm. The protocol: (§1) Mature human adipocytes were treated with zerumbone to evaluate daily for 3 days. A daily titration of the released glycerol, reflecting lipolysis, was measured in the medium, before the media were changed in order to monitor the long-term effect.
Table 5: comparison of the intracellula triglyceride quantity found in mature adipocytes
Table 20: Comparison of the intracellular triglyceride content found in the mature adipocytes; compared effect of zerumbone, caffeine and of a mixture of zerumbone and caffeine.

The test system of a further test is Mature human adipocytes. In words: Lipolytic effect, daily titration of released glycerol over 3 days. It counts as cell-based. The conditions noted are these: Homo sapiens, Adipocyte, Zerumbone 6ppm, read-out: released glycerol, versus negative control. The protocol:
as §1
In a second test, mature human adipocytes were treated with the product to evaluate daily for 3 days. A daily titration of the released glycerol was performed in the media, just before changing of the media in order to monitor the long term effect. Table 19: Comparison of the lipolytic effect of caffeine, zerumbone and of a mixture of caffeine and zerumbone on hypertrophied adipocytes in monolayer (n=4) at short and long term.

For a further test, the system named is MMP1. In words: MMP1 synthesis in NHF after UVA, ELISA. Type of test: cell-based, human. The conditions noted are these: 24h before and 24h after UVA. The method, then:
Principle: NHFs were put into contact with the product of the invention for 24h, and then were radiated with UVA rays to trigger an experimental increase in MMP1 synthesis. The cells once again received the product for 24h and the supernatants were assayed using ELISA tests. At the same time, the number of cells was quantified using the Hoechst method.
A general note: An ELISA detects its analyte on a solid surface through an enzyme-linked reagent.

The test system of a further test is elastase. In words: Dermal destruction by proteases in skin explants, elastase. The conditions noted are these: 18ppm of zerumbone co-injected with the protease; five days at 37°C; confocal microscope. The protocol: Principle: Once prepared, skin explants (person, abdominal skin) received an injection of elastase or collagenase that could proteolyse 30 µmol/min of elastin or collagen. In another case, the invention product (titrated at 18ppm of zerumbone) was co-injected with the protease to assess its ability to inhibit the proteolysis of constituents of the dermis, and thus of protection of the dermis. After five days of incubation at 37°C, the result was observed through a confocal microscope and compared to what was obtained in the case without protease at the same depth (60 µm).

The subject of a further test is IL6. In words: IL6 synthesis by ELISA in adipocyte supernatants. Type of test: cell-based. The conditions noted are these: Homo sapiens. The method, then: Human preadipocytes were seeded and induced to differentiate in the presence of a cocktail of specific inducers and the evaluated products. At the end of differentiation (at 7 and 10 days), the IL6 content synthetized by the adipocytes is measured in the culture supernatants by ELISA method. Furthermore, after 10 days of differentiation, mature adipocytes are placed in contact of the products during 72h and the IL6 content is also measured in the cellular supernatants. In parallel, survival estimation was realized on these two assays (Hoechst tests).

The mark [1] stands for this setting: 72 h, adipocytes after differenciation (3days), read-out: IL6 % Var / control.

Where two headings read alike, the source gives them in different places.

For `C/C1=C\CC(C)(C)/C=C/C(=O)/C(C)=C/CC1` [Zerumbone, 2E, 6E, 9E-Humulatrien-8-one], the inhibition at 6 ppm in the test on mature adipocytes (Homo sapiens, Adipocyte, 72 h, read-out: Triglycerides Variation (%)) was found to be 37%. In the test with mature adipocytes, this compound came in with a Triglycerides of 4947 ± 236 µM/10^6cell. Besides, the “Triglycerides Variation (%)” value in the test on mature adipocytes (4320 min) is on record as -37%; p<0.01. For the same compound, the activation at 6 ppm in the test on Mature human adipocytes (24 h, contact time 1 day) was 72%; with Mature human adipocytes (48 h, contact time 2 days) it was 141%; in the test on Mature human adipocytes (72 h, contact time 3 days) it was 246%. The MMP1 in the test with MMP1 (5 ppm) is recorded as 691 ± 225 ng/106cell. Also, the inhibition at 5 ppm in the test on MMP1 (Homo sapiens, Fibroblast, light or radiation study, read-out: MMP1 % Variation) was 51%; with IL6 (setting [1]), 31%; in the test on IL6 (240 h, adipocytes in the course of differenciation (10days), p=0.09, read-out: IL6 % Var / control), 50%. Besides, the “integrity of the dermis under elastase stress” value in the test on elastase is recorded as “retains its integrity”. Moreover, the inhibition at 3 ppm in the test with IL6 (setting [1]) was 33%; with IL6 (240 h, adipocytes in the course of differenciation (10days), read-out: IL6 % Var / control) it was 49%.
